Measured values as given in PMC7660103, “Discovery of Novel 3-Cyanopyridines as Survivin Modulators and Apoptosis Inducers” (Molecules, 2020).

Assays:
[1] = tested on: prostate carcinoma (PC-3) cells; assay: SRB cytotoxicity assay, PC-3; format: cell-based, human; settings: for IC50: Homo sapiens, PC-3, SRB assay, 72 h, mean ± SD of three experiments; for Selectivity Index PC-3: SI = IC50 on WI-38/IC50 on PC-3
Description: (§1) In the present work, sulforhodamine B (SRB) colorimetric assay was done to evaluate the cytotoxic activity of the synthesized 3-cyano pyridines 4a–4e, 5a–5e, and 6a–6e on three human cancer cell lines: prostate carcinoma (PC-3), breast cancer (MDA-MB-231) and hepatocellular carcinoma (HepG2) cell lines. 5-FU was used as a standard drug for comparison.
(§2) Human cancer cells were obtained from Nawah Scientific Inc. (Mokatam, Cairo, Egypt). Cells were maintained in DMEM media containing […] streptomycin, 100 units/mL penicillin, and 10% heat-inactivated fetal bovine serum in humified, 5% (v/v) CO2 atmosphere at 37 °C.
(§3) Cell viability was estimated using the SRB assay. Aliquots of 100 µL cell suspension (5 × 10^3 cells) in 96-well plates were incubated in complete media for 24 h. Cells were treated with a second aliquot of 100 µL media containing various concentrations of the tested compounds (0.01, 0.1, 1, 10, and 100 μM). After 72 h, cells were fixed by replacing media with 15 µL of 10% TCA and then incubated at 4 °C for 1 h. After that, TCA solution was removed, and the cells were washed 5 times with distilled water. Aliquots of 70 µL SRB solution (0.4% w/v) were added and incubated in a dark place at room temperature for 10 min. Plates were washed 3 times with 1% acetic acid and allowed to air dry overnight. Then, 150 µL of TRIS (10 mM) was added to dissolve protein-bound SRB stain. The absorbance was measured at 540 nm using BMG LABTECH®-FLUO star Omega microplate reader (Ortenberg, Germany).

survivin [2] = target: T1, survivin (Homo sapiens, UniProt O15392); assay: Western blotting of survivin in MDA-MB-231 cells; format: cell-based; settings: for survivin expression (Western blot, in words): MDA-MB-231, 1, 5 and 10 µM
T1 construct: Western blotting analysis in MDA-MB-231cells treated with different concentrations of both compounds; endogenous in cells; host or cells: MDA-MB-231
T1 sequence (O15392 whole entry): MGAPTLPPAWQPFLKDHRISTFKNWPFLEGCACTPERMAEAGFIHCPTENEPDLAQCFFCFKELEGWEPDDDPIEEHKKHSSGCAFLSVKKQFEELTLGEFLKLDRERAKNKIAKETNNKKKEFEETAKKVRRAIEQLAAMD
Description: The ability of the 2-oxo-3-cyano pyridines 5c and 5e to cause an inhibition of survivin was evaluated by the use of Western blotting analysis in MDA-MB-231cells treated with different concentrations of both compounds (1, 5, and 10 µM). […] Furthermore, to test the effect of these compounds on some other IAP family proteins, the Western plot of Livin, XIAP, and C-IAP1 proteins was performed (Figure 6). […] The Supplementary Material Figures S40 and S41 contain western blotting analysis for 5c and 5e.
MDA-MB-231 cancer cells were incubated with 5c and 5e at different concentrations (1, 5, and 10 µM) for 48 h. Afterwards, the medium was detached, and the cells were washed using PBS (10 mmol/L, pH 7.4). Then, the cells were incubated on cold lysis buffer (50 mmol/L Tris–HCl, 150 mmol/L NaCl, 1 mmol/L EGTA, 1 mmol/L EDTA, 20 mmol/L NaF, […], 0.5% NP40, 1% Triton X-100, 1 mmol/L PMSF (pH 7.4)) and a freshly added cocktail inhibitor (Inhibitor Cocktail Set III, Calbiochem, La Jolla, CA) above ice for 30 min. Then, MDA-MB-231 cells were collected and centrifuged at 12,000× g for 15 min.
XIAp, Survivin, Livin, and cIAP1anti-mouse, anti-rabbit secondary antibodies, and GAPDH were purchased from Sigma-Aldrich, whereas the gel was obtained from BioRad. Polyacrylamide gels were moved to a nitrocellulose membrane in order to block in buffer (7% nonfat dry milk/1% Tween 20; in 20 mmol/L TBS (pH 7.6)) for 1 h and incubated for 2 h at room temperature with the suitable primary antibody in blocking buffer or overnight at 4 °C; then, they were incubated with secondary antibody HRP conjugate. Finally, the blots analysis was done using the imaging system.

MDA-MB-231 cells = assay: Cell cycle analysis by flow cytometry; format: cell-based, human; settings: MDA-MB-231, IC50 concentration, 24 h; for %Pre-G1: control 1.87; for %G2-M: control 4.38; for %S: control 35.21; for %G0-G1: control 60.41
Description: Survivin has been recognized to play dual roles in stimulating cell-cycle progression and in obstructing apoptosis. Additionally, survivin is known to be expressed mainly in the G2/M phase of the cell cycle. Therefore, it was significant to examine the ability of our promising compounds 5c and 5e to induce cell cycle arrest. […] As shown in Figure 2 and Table 3, both 5c and 5e caused an increase in the number of cells in the G2/M phase by 4.92 and 5.74 folds, respectively, compared to the control cells. At the same time, a decrease in the DNA content in the G0/G1 phase, and a slight decrease in the S phase cells were observed. […] Supplementary Material Figures S37–S39 contain the cell cycle analysis for control and compounds 5c and 5e.
After that, cells were collected by trypsin and washed in saline buffered with phosphate. Then, they were fixed using ice-cold alcohol. Afterwards, cells were stained by a Cycle TESTTM PLUS DNA Reagent Kit (BD Biosciences, San Jose, CA, USA) according to the manufacturer’s directions. The distribution of the cells in the cell cycle was calculated using a FACS Calibur flow cytometer (BD Biosciences, San Jose, CA, USA).

survivin [3] = target: T1, survivin; assay: Rescue experiment with proteasome inhibitor MG132 (Western blot of survivin); format: cell-based; settings: MDA-MB cells pre-treated with proteasome inhibitor MG132
Description: Degradation of the dimeric proteins can result from the interaction with the hydrophobic dimerization interface, which leads to conformational changes. This degradation can be mediated by the proteasome enzyme. Since 5c and 5e were expected to inhibit survivin dimerization as shown in the docking study, we assumed that they may induce the degradation of survivin via the proteasome. Thus, a rescue experiment was performed by pre-treating MDA-MB-cells with the proteasome inhibitor MG132 prior to 5c/5e treatment. […] Thus, 5c and 5e likely promote survivin degradation through the proteasome.

[4] = tested on: breast cancer (MDA-MB-231) cells; assay: SRB cytotoxicity assay, MDA-MB-231; format: cell-based, human; settings: for IC50: Homo sapiens, MDA-MB-231, 72 h, SRB assay, 72 h, mean ± SD of three experiments; for Selectivity Index MDA-MB-231: SI = IC50 on WI-38/IC50 on MDA-MB-231
Description: as §1, §2, §3

[5] = tested on: hepatocellular carcinoma (HepG2) cells; assay: SRB cytotoxicity assay, HepG2; format: cell-based, human; settings: for IC50: Homo sapiens, HepG2, 72 h, SRB assay, 72 h, mean ± SD of three experiments; for Selectivity Index HepG2: SI = IC50 on WI-38/IC50 on HepG2
Description: as §1, §2, §3

[6] = cytotoxicity compared with 5-FU

SMILES | IC50 [1] | Selectivity Index PC-3 [1] | Survivin band % (survivin [2]; MDA-MB-231, 1µM) | Survivin band Area (survivin [2]; MDA-MB-231, 1µM) | Survivin band Height (survivin [2]; MDA-MB-231, 1µM) | Survivin band Width (survivin [2]; MDA-MB-231, 1µM) | Survivin band % (survivin [2]; MDA-MB-231, 5µM) | Survivin band Area (survivin [2]; MDA-MB-231, 5µM) | Survivin band Height (survivin [2]; MDA-MB-231, 5µM) | Survivin band Width (survivin [2]; MDA-MB-231, 5µM) | Survivin band % (survivin [2]; MDA-MB-231, 10µM) | Survivin band Area (survivin [2]; MDA-MB-231, 10µM) | Survivin band Height (survivin [2]; MDA-MB-231, 10µM) | Survivin band Width (survivin [2]; MDA-MB-231, 10µM) | survivin expression (Western blot, in words) (survivin [2]) | increase in the number of cells in the G2/M phase compared to control (MDA-MB-231 cells) | %Pre-G1 (MDA-MB-231 cells) | %G2-M (MDA-MB-231 cells) | %S (MDA-MB-231 cells) | %G0-G1 (MDA-MB-231 cells) | further results
N#Cc1c(-c2ccc(Cl)cc2)cc(-c2ccc(OCc3ccc(F)cc3)cc2)[nH]c1=O [Compound 5c, 4-(4-Chlorophenyl)-6-(4-((4-fluorobenzyl)oxy)phenyl)-2-oxo-1,2-dihydropyridine-3-carbonitrile] | 14.4 ± 0.38 µM | 6.33 | 38.3% | 2261 | 156 | 26 | 25.9% | 1674 | 137 | 16 | 15.6% | 1028 | 121 | 13 | remarkable inhibition of survivin expression | 4.92 fold | 16.32% | 21.57% | 33.16% | 45.27% | cytotoxicity relative to 5-FU ([1]; cell line not specified (PC-3, MDA-MB-231, HepG2 tested)): nearly half that of 5-FU; effect of MG132 pre-treatment on compound-induced survivin loss (survivin [3]): MG132 reversed 5c/5e-induced survivin loss; IC50 [4]: 20 ± 0.17 µM; Selectivity Index MDA-MB-231 [4]: 4.56; IC50 [5]: 15 ± 0.64 µM; Selectivity Index HepG2 [5]: 6.08
COc1ccc(-c2cc(-c3ccc(OCc4ccc(F)cc4)cc3)[nH]c(=O)c2C#N)cc1 [Compound 5e, 6-(4-((4-Fluorobenzyl)oxy)phenyl)-4-(4-methoxyphenyl)-2-oxo-1,2-dihydropyridine-3-carbonitrile] | 4.46 ± 0.51 µM | 22.99 | 31.4% | 1368 | 120 | 22 | 25% | 1079 | 108 | 19 | 19.1% | 1062 | 105 | 18 | remarkable inhibition of survivin expression | 5.74 fold | 19.47% | 25.16% | 32.48% | 42.36% | activity relative to 5-FU, PC-3 [1, 6]: twice the activity of 5-FU; effect of MG132 pre-treatment on compound-induced survivin loss (survivin [3]): MG132 reversed 5c/5e-induced survivin loss; IC50 [4]: 3.59 ± 0.42 µM; Selectivity Index MDA-MB-231 [4]: 28.57; activity relative to 5-FU, MDA-MB-231 [4, 6]: 2.6 fold; IC50 [5]: 6.01 ± 0.53 µM; Selectivity Index HepG2 [5]: 17.06; activity relative to 5-FU, HepG2 [5, 6]: comparable to 5-FU
